Results published in article PMC11272584 (Nature Metabolism, 2024).
Read-outs that look alike come from different tables or passages of the source.

Legend:
[1] = system: GIPR; conditions: cited from earlier work
Source text: (§1) Development of similar Gs biased analogues for the GIPR has also been proposed. Although it is not possible to genetically instrument the dual agonistic effects, our results and those of others[33] highlight that decreased recruitment of β-arrestins might benefit the GLP-1R system[36],[37] but not for the GIPR regarding its role in glycaemic control. Ye ...

[2] = molecular target: T1, GLP-1R (Homo sapiens, UniProt P43220); conditions: cited from earlier work
T1 construct: expressed in transfected cells; host or cells: parental HEK293A cells and β-arrestin 1/2 KO HEK293A cells
Source text: as §1

[3] = system: WT male mice; assay: IPGTT in WT male mice; format: in vivo, mouse; set-up: Mean difference in glucose (WT + Veh. vs. WT + GLP-1): unit not given here; conditions: for Mean difference in glucose (WT + Veh. vs. WT + GLP-1): injected 15 min before glucose, n = 14 veh., 13
Source text: (§2) We therefore explored the functional relationship between β-arrestin recruitment and GIP-stimulated glucose regulation by conducting pharmacological interventions in a murine genetic global germline β-arrestin 2 (Arrb2) knockout (KO) model.
(§3) Studies were approved by and performed according to the guidelines of the Institutional Animal Care and Use Committee of Duke University. Male Arrb2 KO mice (Arrb2^−/−) ~12–15 weeks of age were generously provided by Drs Howard Rockman and Robert Lefkowitz at Duke University[70]. The mice were kept in standard housing conditions with a temperature of 20–26 °C and a 12-h dark/light cycle to ensure the physiological and psychological wellbeing of the mice. Mice were fed research diets 5053. We restrictedly used male mice because of the potential impact of the sexual dimorphism, that is, the oestrus cycle in female mice on cardiometabolic traits, resulting in unwanted variability and to ensure comparability to existing research predominantly using male mice[71]. The mice were subjected to an IPGTT. […] Data collection and analysis were not randomized or blind to the conditions of the experiments. The statistical analysis was performed in GraphPad Prism.

[4] = system: β cell-specific β-arrestin 2 KO female mice; conditions: cited from earlier work
Source text: In contrast, GIP-potentiated insulin secretion relied on β-a ...

[5] = system: male Arrb2 KO mice; assay: IPGTT in male Arrb2 KO mice; format: in vivo, mouse; set-up: Mean difference in glucose (Arrb2-/- + Veh. vs. Arrb2-/- + GLP-1): unit not given here; conditions: for Mean difference in glucose (Arrb2-/- + Veh. vs. Arrb2-/- + GLP-1): injected 15 min before glucose, n = 13 veh., 10
Source text: as §2, §3

[6] = system: GIPR variants (groups)
[7] = system: WT GIPR; conditions: cited from earlier work
[8] = system: SNAP-GIPR T116R; conditions: HEK293A
[9] = system: GIPR W90Lfs*17; conditions: GIPR W90Lfs* (ECD), mean, n = 5, duplicate
Procedure: HEK293 (CRL-1573, American Type Culture Collection) and β-arrestin 1/2 knockout cells, generated from HEK293A[48], were used for cAMP measurement, homologues competition binding and β-arrestin 2 recruitment. […] Both cell lines were cultured at 5% CO2 at 37 °C in Roswell Park Memorial Institute GlutaMAX-I supplemented with 10% fetal bovine serum, 180 units ml^−1 penicillin, and 45 g ml^−1 streptomycin. […] The polyethyleneimine (PEI) transfection method was used for the β-arrestin 2 recruitment assays[50], endosomal signalling and basal receptor localization assays, while the lipofectamine transfection method was used for the internalization assay.
(§4) Measurement of β-arrestin 2 recruitment was performed with a BRET assay. Two days before the assay, the HEK293 cells were transiently transfected with either WT GIPR or the GIPR variants together with the donor Rluc8-Arrestin-3-Sp1, the acceptor mem-linker-citrine-SH3 and the GPCR kinase 2 to facilitate β-arrestin 2 recruitment. On assay day, the cells were washed with PBS and resuspended in PBS supplemented with 5 mmol l^−1 glucose. Subsequently, 85 µl of the cell suspension was transferred to a white 96-well plate and 10 µl of 50 µM coelenterazine-h was added.

[10] = system: GIPR W90Lfs*17; assay: cAMP accumulation; format: cell-based, human; conditions: W90Lfs*; HEK293; GIP(1–42) 1 pM–100 nM, 30 min 37 °C; mean of n = 5
Procedure: HEK293 (CRL-1573, American Type Culture Collection) and β-arrestin 1/2 knockout cells, generated from HEK293A[48], were used for cAMP measurement, homologues competition binding and β-arrestin 2 recruitment. For the internalization assay, endosomal signalling and basal receptor localization experiments, HEK293A (R70507, Thermo Fisher) cells were used. Both cell lines were cultured at 5% CO2 at 37 °C in Roswell Park Memorial Institute GlutaMAX-I supplemented with 10% fetal bovine serum, 180 units ml^−1 penicillin, and 45 g ml^−1 streptomycin. For the cAMP and binding experiments, cells were transfected with the calcium phosphate precipitation method[49]. The polyethyleneimine (PEI) transfection method was used for the β-arrestin 2 recruitment assays[50], endosomal signalling and basal receptor localization assays, while the lipofectamine transfection method was used for the internalization assay.
cAMP production was measured with the DiscoverX Hithunter cAMP assay according to the manufacturer’s protocol (DiscoverX). […] On the day of the assay, the cells were washed twice with HEPES-buffered saline (HBS) and incubated with HBS and 1 mM 3-isobutyl-1-methylxanthine for 30 min at 37 °C. […] After a 3-h incubation on a shaking table in the dark, the cAMP accumulation was measured based on luminescence with a Perkin Elmer EnVision 2104 Multilabel Microplate Reader. […]

[11] = system: SNAP-GIPR A150T; conditions: HEK293A
[12] = system: SNAP-WT GIPR; conditions: HEK293A
[13] = system: SNAP-GIPR A185V; conditions: HEK293A
[14] = system: GIPR variants (groups); assay: cAMP accumulation; format: cell-based, human
[15] = system: SNAP-GIPR A207V; conditions: HEK293A
[16] = system: SNAP-GIPR Y73H; conditions: HEK293A
[17] = system: SNAP-GIPR P195R; conditions: HEK293A
[18] = system: GIPR variants (groups); assay: β-arrestin 2 recruitment (BRET);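 also: BRET readout of β-arrestin 2 recruitment in transiently transfected HEK293 cells expressing WT GIPR or a GIPR variant plus GPCR kinase 2, Rluc8 donor and citrine acceptor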
Procedure: Both cell lines were cultured at 5% CO2 at 37 °C in Roswell Park Memorial Institute GlutaMAX-I supplemented with 10% fetal bovine serum, 180 units ml^−1 penicillin, and 45 g ml^−1 streptomycin. […] The polyethyleneimine (PEI) transfection method was used for the β-arrestin 2 recruitment assays[50], endosomal signalling and basal receptor localization assays, while the lipofectamine transfection method was used for the internalization assay.
as §4

[19] = system: SNAP-GIPR V99I; conditions: HEK293A
[20] = system: SNAP-GIPR M67R; conditions: HEK293A
[21] = system: GIPR variants (groups); remark: listed apart in the source
Procedure: Binding experiments were performed simultaneously with the same transiently transfected HEK293 cells used for the cAMP experiments to enable the correlation of receptor expression with signalling between assays. In brief, 1 day before the assay, the transfected cells were seeded in a clear 96-well plate. […] On the assay day, the cells were washed twice with 4 °C binding buffer (50 mM HEPES buffer (pH 7.2), 1 mM CaCl2, 5 mM MgCl2 and 0.5% (wt/vol) bovine serum albumin) and incubated for 15 minutes at 4 °C. […] After incubation, the cells were washed in ice-cold binding buffer and lysed with 200 mmol l^−1 NaOH with 1% sodium dodecyl sulphate for 30 min. The gamma radiation was measured with a 2470 Wizard2 Automatic Gamma Counter.
To obtain Emax, EC50, Bmax, Kd and IC50 values, we analysed the data with the non-linear regression curve fitting program GraphPad Prism Software 9 (GraphPad).
The Bmax was calculated according to the following equation[51]: Bmax=B0×IC50/[L] in which B0 represents the total specific binding and [L] is the ligand concentration. The equilibrium dissociation constant (Kd) was obtained with the equation[51]: Kd=IC50−[L]

[22] = system: GIPR variants (groups); remark: listed apart in the source
Procedure: This prompted us to further assess the role of β-arrestin for GIPR signalling by investigating the endosomal signalling in representative GIPR variants from each of the six in vitro-based groups.
At 48 h post-transfection, cells were washed with HBSS and subsequently maintained in 80 µl HBSS. […] Light emission at 515/20 nm (acceptor; rGFP) and 400/70 nm (donor; Rluc8) was measured using a Tecan Spark multimode microplate reader (Männedorf).

[23] = molecular target: T2, GIPR S64P (Homo sapiens, UniProt P48546, S64P); assay: cAMP accumulation; format: cell-based
T2 construct: host or cells: HEK293
T2 sequence (P48546 22-466 S64P): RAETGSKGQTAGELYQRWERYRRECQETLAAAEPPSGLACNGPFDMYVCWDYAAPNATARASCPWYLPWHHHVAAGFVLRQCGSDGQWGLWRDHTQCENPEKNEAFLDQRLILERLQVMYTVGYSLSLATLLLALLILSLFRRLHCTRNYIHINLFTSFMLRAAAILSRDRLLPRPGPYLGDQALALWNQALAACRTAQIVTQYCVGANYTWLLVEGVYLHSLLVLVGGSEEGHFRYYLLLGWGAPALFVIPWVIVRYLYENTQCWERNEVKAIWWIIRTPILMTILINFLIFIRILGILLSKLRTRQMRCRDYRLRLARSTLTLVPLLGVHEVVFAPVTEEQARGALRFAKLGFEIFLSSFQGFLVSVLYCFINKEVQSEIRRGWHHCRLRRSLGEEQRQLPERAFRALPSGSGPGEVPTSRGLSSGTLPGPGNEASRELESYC
Procedure: HEK293 (CRL-1573, American Type Culture Collection) and β-arrestin 1/2 knockout cells, generated from HEK293A[48], were used for cAMP measurement, homologues competition binding and β-arrestin 2 recruitment. […] Both cell lines were cultured at 5% CO2 at 37 °C in Roswell Park Memorial Institute GlutaMAX-I supplemented with 10% fetal bovine serum, 180 units ml^−1 penicillin, and 45 g ml^−1 streptomycin. For the cAMP and binding experiments, cells were transfected with the calcium phosphate precipitation method[49].
cAMP production was measured with the DiscoverX Hithunter cAMP assay according to the manufacturer’s protocol (DiscoverX). […] On the day of the assay, the cells were washed twice with HEPES-buffered saline (HBS) and incubated with HBS and 1 mM 3-isobutyl-1-methylxanthine for 30 min at 37 °C. […] After the incubation, the assay medium was removed from the plate and the cells were washed with 30 µl PBS and treated with 40 µl enzyme donor–lysis buffer–chemiluminescent reagents and 10 µl cAMP antibodies for 60 min before 40 µl enzyme acceptor solution added. After a 3-h incubation on a shaking table in the dark, the cAMP accumulation was measured based on luminescence with a Perkin Elmer EnVision 2104 Multilabel Microplate Reader. […]

[24] = M67R, Y73H, V99I, T116R, A150T, A185V, P195R and A207V
[25] = R12Q, L13F, R38L, A294V, I299V, E354Q, S415I, E418K, G449A and E463Q
[26] = T25R, R43G, R164Q, H166Y, I221M and K397N

T1 sequence (P43220 24-463, species assumed): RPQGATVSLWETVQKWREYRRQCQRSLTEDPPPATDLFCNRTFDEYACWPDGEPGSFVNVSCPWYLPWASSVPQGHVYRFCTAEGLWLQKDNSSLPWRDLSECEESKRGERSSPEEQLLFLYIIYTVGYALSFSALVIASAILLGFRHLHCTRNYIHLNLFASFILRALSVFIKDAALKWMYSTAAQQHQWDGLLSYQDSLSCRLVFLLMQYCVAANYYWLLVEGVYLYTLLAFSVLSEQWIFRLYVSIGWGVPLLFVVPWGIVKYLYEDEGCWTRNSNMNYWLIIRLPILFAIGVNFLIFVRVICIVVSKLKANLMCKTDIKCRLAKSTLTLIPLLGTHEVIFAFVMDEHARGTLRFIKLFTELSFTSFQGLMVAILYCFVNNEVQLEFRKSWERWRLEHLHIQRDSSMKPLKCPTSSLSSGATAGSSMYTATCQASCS

In the case of tirzepatide: GIPR–GLP-1R co-agonist, the GIPR activation [1] is given as “activation of GIPR as native GIP”, the “cAMP pathway activation at the GLP-1R” value [2] is given as “full activation of the cAMP pathway” and the “β-arrestin recruitment to the GLP-1R” value [2] is given as “less recruitment of β-arrestin”.

With glucagon-like peptide-1 [GLP-1] the “Blood glucose lowering in IPGTT” value ([3]; WT male mice, 15 min before IPGTT) was “significantly lowered blood glucose levels”, the “Mean difference in glucose (WT + Veh. vs. WT + GLP-1)” value ([3]; time 0, P = 0.031) was 19.9 and the “Mean difference in glucose (WT + Veh. vs. WT + GLP-1)” value ([3]; time 15 minutes, P = 0.025) was 40.3. The “Mean difference in glucose (WT + Veh. vs. WT + GLP-1)” value ([3]; time 30 minutes, P = 0.094) was 28.3, the “Mean difference in glucose (WT + Veh. vs. WT + GLP-1)” value ([3]; time 60 minutes, P = 0.535) was 8.13 and the “Mean difference in glucose (WT + Veh. vs. WT + GLP-1)” value ([3]; time 120 minutes, P = 0.741) was -1.82. The Acute glycaemic control [4] was “reduced acute GLP-1-mediated glycaemic control”, the “Blood glucose lowering in IPGTT” value ([5]; male Arrb2 KO mice, 15 min before IPGTT) was “able to lower blood glucose” and the “Mean difference in glucose (Arrb2-/- + Veh. vs. Arrb2-/- + GLP-1)” value ([5]; time 0, P = 0.011) was 20.9. The “Mean difference in glucose (Arrb2-/- + Veh. vs. Arrb2-/- + GLP-1)” value ([5]; time 15 minutes, P = 0.008) was 44.9, the “Mean difference in glucose (Arrb2-/- + Veh. vs. Arrb2-/- + GLP-1)” value ([5]; time 30 minutes, P = 0.0038) was 39.3 and the “Mean difference in glucose (Arrb2-/- + Veh. vs. Arrb2-/- + GLP-1)” value ([5]; time 60 minutes, P = 0.216) was 8.48. The “Mean difference in glucose (Arrb2-/- + Veh. vs. Arrb2-/- + GLP-1)” value ([5]; time 120 minutes, P = 0.796) was 3.39 and the Insulinotropic properties ([5]; β-arrestin KO mice) was “maintained its insulinotropic properties”.

In the case of “glucose-dependent insulinotropic polypeptide [GIP]”, the Level of internalization ([6]; M67R, V99I and P195R) is reported as “slightly diminished internalization”, the Internalization ([6]; R190Q and E288G (LoFcAMP/LoFarr)) is reported as “did not internalize” and the Level of internalization ([6]; Y73H, T116R, A150T, A185V and A207V) is reported as “nearly identical levels of internalization as the WT GIPR”. The Internalization ([6]; all eight LoFcAMP/WT-likearr variants) was “preserved internalization capabilities”, the β-arrestin isoform recruitment [7] was “predominantly recruits β-arrestin 2 over β-arrestin 1” and the “Emax (Dose-response), internalization” value ([8]; GIP 1 nM–1 µM, 37 °C, n = 4) was 93 % of maximal SNAP-WT GIPR inte. The “LogEC50 (Dose-response), internalization” value ([8]; Hill slope 1.0, n = 4) was -7.6, the “logEC50 (Arrestin)” value ([9]; Hill slope 1.0) was -10.8 and the “Arrestin (Emax)” value ([9]; normalized to WT GIPR) was 15. For the same molecule, the “cAMP (Emax)” value [10] was 11 % of WT GIPR activity, the “Emax (Dose-response), internalization” value ([11]; GIP 1 nM–1 µM, 37 °C, n = 4) was 98 % of maximal SNAP-WT GIPR inte and the “LogEC50 (Dose-response), internalization” value ([11]; Hill slope 1.0, n = 4) was -7.6. The “Emax (Dose-response), internalization” value ([12]; GIP 1 nM–1 µM, 37 °C, n = 4) was 100 % of maximal SNAP-WT GIPR inte, the “LogEC50 (Dose-response), internalization” value ([12]; Hill slope 1.0, n = 4) was -7.5 and the “Emax (Dose-response), internalization” value ([13]; GIP 1 nM–1 µM, 37 °C, n = 4) was 89 % of maximal SNAP-WT GIPR inte. The “LogEC50 (Dose-response), internalization” value ([13]; Hill slope 1.0, n = 4) was -7.5, the “cAMP signalling activity at 100 pM GIP” value ([14]; 29 partial and complete LoF variants, 100 pM GIP) was < 50 % of WT and the cAMP production class [14, 24] was “LoF (defined as <50% activity in either pathway)”. The cAMP production class [14, 25] was “WT-like”, the “cAMP production at higher GIP doses” value ([14]; R183Q, R190Q and R300W, higher GIP doses) was “cAMP production was restored” and the cAMP signalling ([14]; R190Q and E288G) was “impaired cAMP signalling”. For the same molecule, the cAMP production class [14, 26] was “maintained cAMP production”, the “cAMP signalling at 100 pM GIP” value ([14]; T116R, R183Q, R190Q and R300W, 100 pM GIP) was “no cAMP signalling” and the “Emax (Dose-response), internalization” value ([15]; GIP 1 nM–1 µM, 37 °C, n = 4) was 98 % of maximal SNAP-WT GIPR inte. The “LogEC50 (Dose-response), internalization” value ([15]; Hill slope 1.0, n = 4) was -7.6, the “Emax (Dose-response), internalization” value ([16]; GIP 1 nM–1 µM, 37 °C, n = 4) was 101 % of maximal SNAP-WT GIPR inte and the “LogEC50 (Dose-response), internalization” value ([16]; Hill slope 1.0, n = 4) was -7.4. The “Emax (Dose-response), internalization” value ([17]; GIP 1 nM–1 µM, 37 °C, n = 4) was 77 % of maximal SNAP-WT GIPR inte, the “LogEC50 (Dose-response), internalization” value ([17]; Hill slope 1.0, n = 4) was -7.2 and the β-arrestin recruitment ([18]; 21 of the 29 variants with impaired cAMP production (LoFcAMP/LoFarr)) was “impaired β-arrestin recruitment”. The β-arrestin recruitment class [18, 24] was “WT-like”, the β-arrestin recruitment class [18, 25] was “WT-like” and the β-arrestin recruitment ([18]; R190Q and E288G) was “impaired cAMP signalling and β-arrestin recruitment”. The β-arrestin recruitment class [18, 26] was “low β-arrestin recruitment”, the “β-arrestin 2 recruitment potency” value ([18]; most of 47 variants, apart from a few lacking recruitment) was “no major differences in potency” and the “Emax (Dose-response), internalization” value ([19]; GIP 1 nM–1 µM, 37 °C, n = 4) was 92 % of maximal SNAP-WT GIPR inte. The “LogEC50 (Dose-response), internalization” value ([19]; Hill slope 1.0, n = 4) was -6.9, the “Emax (Dose-response), internalization” value ([20]; GIP 1 nM–1 µM, 37 °C, n = 4) was 98 % of maximal SNAP-WT GIPR inte and the “LogEC50 (Dose-response), internalization” value ([20]; Hill slope 1.0, n = 4) was -6.6. The GIP binding ([21]; R190Q and E288G) was “maintained GIP binding”, the GIP binding ([21]; S64P, C84Pfs*70, R101H, Y258Sfs*50 and Q400Gfs*56) was “undetectable GIP binding” and the “Binding capacity of GIP (Bmax)” value ([21]; all 29 LoF variants) was “impaired”. The Endosomal signalling ([22]; variants that retained β-arrestin recruitment) was “effectively recruited mGs to early endosomes” and the Endosomal signalling ([22]; variants with diminished β-arrestin recruitment) was “minimal to no signalling from early endosomes”.

B1: S64P (protein)
chain: RAETGSKGQTAGELYQRWERYRRECQETLAAAEPPSGLACNGPFDMYVCWDYAAPNATARASCPWYLPWHHHVAAGFVLRQCGSDGQWGLWRDHTQCENPEKNEAFLDQRLILERLQVMYTVGYSLSLATLLLALLILSLFRRLHCTRNYIHINLFTSFMLRAAAILSRDRLLPRPGPYLGDQALALWNQALAACRTAQIVTQYCVGANYTWLLVEGVYLHSLLVLVGGSEEGHFRYYLLLGWGAPALFVIPWVIVRYLYENTQCWERNEVKAIWWIIRTPILMTILINFLIFIRILGILLSKLRTRQMRCRDYRLRLARSTLTLVPLLGVHEVVFAPVTEEQARGALRFAKLGFEIFLSSFQGFLVSVLYCFINKEVQSEIRRGWHHCRLRRSLGEEQRQLPERAFRALPSGSGPGEVPTSRGLSSGTLPGPGNEASRELESYC
With B1 the “Efficacy at 100pmol (cAMP)” value [23] was 0, the “In vitro groups (cAMP)” value ([14]; cAMP part of the in vitro group) was “LoF_camp” and the percentage_camp ([14]; cAMP production compared with WT) was less than 50% cAMP. For the same molecule, the “Beta, cAMP” value ([14]; in vitro cAMP production per GIPR variant) was 0, the “In vitro groups (β-arrestin)” value ([18]; arr part of the in vitro group) was “LoF_arr” and the “Beta, Barr” value ([18]; in vitro β-arrestin recruitment per GIPR variant) was 0.
